Values quoted from earlier work, collected in patent US20150133409A1, “TOPICAL OPHTHALMIC, OTIC, AND NASAL COMPOSITIONS OF CIPROFLOXACIN” (priority 2013, published 2015).
Where two headings read alike, the source gives them in different places.

Settings: aqueous 0.2 to 1 weight percent ciprofloxacin

pH at which crystalline precipitation of ciprofloxacin occurs (5° C.): above 5 | pH at which crystalline precipitation of ciprofloxacin occurs (room temperature): above 5.5
Compound: O=C(O)c1cn(C2CC2)c2cc(N3CCNCC3)c(F)cc2c1=O [ciprofloxacin]
